Laboratory results: patent US20110294721A1, “ANTIMICROBIAL PEPTIDES” (priority 2008, published 2011)
Like-named read-outs stand apart in the source and are kept apart here. No end group written: not given here.

Legend:
Xanthomonas vesicatoria [1] = test system: Xanthomonas vesicatoria
Escherichia coli (DH5α) = type: cell-based
Experimental: (§1) In-vitro inhibition assays were performed in sterile ELISA-plates (Greiner bio-one, Frickenhausen or Nunc, Wiesbaden). Antimicrobial peptides were dissolved in 0.01% acetic acid containing 0.2% BSA and stored at −20° C. For inhibition assays dilutions of peptides ranging from 5 to 500 μg/ml were prepared and 10 μl of each concentration was loaded per well.
(§2) The optical density of bacteria overnight cultures were adjusted to 0.08-0.1 and diluted in BHI-medium (1:1000). 90 μl of this suspension containing about 10^5-10^6 CFU/ml of tested bacteria were added to each well resulting in final peptide concentrations of 0, 0.5, 1, 2, 5, 10, 20, and 50 μg/ml. After incubation for one day at 27° C. growth inhibition of the bacteria was analyzed by a ELISA microplate reader. The lowest concentration, in which there is no observable growth (>90% inhibition) is referred to as minimal inhibitory concentration (MIC).
(§3) In-vitro inhibition assays were performed as described in Example 5 above.

Staphylococcus aureus = type: cell-based
Experimental: as §1, §2, §3

[2] = test system: Pectobacterium carotovorum sub. carotovorum
Alternaria alternata = assay: MIC in-vitro inhibition assay, antifungal (Example 2); type: cell-based; details: complete inhibition of spore germination/mycelial growth; Table 1
Experimental: as §1, with “flat-bottom 96-well plates” for “ELISA-plates”, “Frickenhausen).” for “Frickenhausen or Nunc, Wiesbaden).”, “BSA (500 μg/ml), filter sterilized” for “BSA”, “200” for “500”, “μl (antibacterial assay) or 20 μl (antifungal assay)” for “μl”
(§4) Spores of fungi were collected by water washes of sporulating cultures grown on 2% malt extract agar and spore concentration was determined by microscopy. The concentration of the spores was adjusted to 1.5-2×10^3 spores/ml in 2% malt extract medium and 80 μl of fungal spores were added per well. The final peptide concentrations used in the fungal inhibition assays were 0, 2, 4, 10, 20, 40, and 100 μg/ml. After overnight incubation at room temperature the plate were put on a rotary shaker (300 rpm) for further two days to ensure consistantly growth. Antifungal effects of the peptides were determined by a microplate reader (Altemaria, Fusarium) at OD590 nm or by visual screening of the plates (Bottytis, Cladosporium).
(§5) The lowest peptide concentration leading to complete inhibition of bacterial growth or spore germination/mycelial growth (minimal inhibition concentration, MIC) was determined for each organism-peptide combination. For each peptide concentration two identical inhibition assays were performed.

Botrytis cinerea = assay: as above; type: cell-based; details: complete inhibition of spore germination/mycelial growth; Table 1
Experimental: as §1, with “flat-bottom 96-well plates” for “ELISA-plates”, “Frickenhausen).” for “Frickenhausen or Nunc, Wiesbaden).”, “BSA (500 μg/ml), filter sterilized” for “BSA”, “200” for “500”, “μl (antibacterial assay) or 20 μl (antifungal assay)” for “μl”
as §4, §5

Cladosporium herbarum = assay: as above; type: cell-based; details: complete inhibition of spore germination/mycelial growth; Table 1
Experimental: as §1, with “flat-bottom 96-well plates” for “ELISA-plates”, “Frickenhausen).” for “Frickenhausen or Nunc, Wiesbaden).”, “BSA (500 μg/ml), filter sterilized” for “BSA”, “200” for “500”, “μl (antibacterial assay) or 20 μl (antifungal assay)” for “μl”
as §4, §5

[3] = test system: Pseudomonas syringae pv. tomato
[4] = test system: Pseudomonas syringae pv. syringae
Pseudomonas corrugata [5] = test system: Pseudomonas corrugata
Klebsiella pneumoniae = type: cell-based
Experimental: (§6) In-vitro inhibition assays were performed in sterile ELISA-plates (Greiner bio-one, Frickenhausen or Nunc, Wiesbaden). Antimicrobial peptides were dissolved in 0.01% acetic acid containing 0.2% BSA and stored at −20° C. […] After incubation for one day at 27° C. growth inhibition of the bacteria was analyzed by a ELISA microplate reader.

Yersinia enterocolitica = type: cell-based
Experimental: as §6

Enterobacter cloacae = type: cell-based
Experimental: as §6

[6] = test system: Staphylococcus epidermidis; type: cell-based
Experimental: as §6

Klebsiiella oxytoca = type: cell-based
Experimental: as §6

Pseudomonas aeruginosa = type: cell-based
Experimental: as §6

HeLa cells (LC5-RIC) = type: cell-based, human
Experimental: (§7) Antimicrobial oligopeptides were dissolved in 0.01% acetic acid containing 0.2% BSA (500 μg/ml), filter sterilized and stored at −20° C. […] (in 5% CO2). Afterwards, virus particles were added to the pre-treated HeLa cells and the infection was quantified by measuring red fluorescence with a fluorescence microplate reader after 72 h incubation. The viability of the HeLa cells was determined by measuring the activity of the mitochondrial dehydrogenase according to Lindl and Bauer (1994) and Mosmann (1983).

[7] = test system: Pectobacterium carotovorum; assay: MIC and lethal concentration (LC) assay (Example 3); type: cell-based; details: Table 2; for LC (lethal concentration): 100% inhibition after at least 4 days of incubation; for MIC: >90% inhibition, 1-2 days at 25° C.
Experimental: as §1, with “flat-bottom 96-well plates” for “ELISA-plates”, “Frickenhausen).” for “Frickenhausen or Nunc, Wiesbaden).”, “BSA (500 μg/ml), filter sterilized” for “BSA”, “200” for “500”, “μl (antibacterial assay) or 20 μl (antifungal assay)” for “μl”
(§8) Bacteria colonies from overnight agar plate cultures were resuspended into 5 ml LB-medium or HPG-medium (OD600 nm=0.08-0.1) and diluted into LB-medium/HPG-medium (1:100). 90 μl of this suspension containing about 10^5-10^6 CFU/ml of tested bacteria were added to each well resulting in final peptide concentrations of 0, 0.5, 1, 2, 5, 10, and 20 μg/ml. […] The lowest concentration, in which there is no observable growth (>90% inhibition) is referred to as minimal inhibitory concentration (MIC). […] For each peptide concentration two identical inhibition assays were performed.

[8] = test system: Pseudomonas syringae pv. tomato; assay: as above; type: cell-based; details: Table 2; for LC (lethal concentration): 100% inhibition after at least 4 days of incubation; for MIC: >90% inhibition, 1-2 days at 25° C.
Experimental: as §1, with “flat-bottom 96-well plates” for “ELISA-plates”, “Frickenhausen).” for “Frickenhausen or Nunc, Wiesbaden).”, “BSA (500 μg/ml), filter sterilized” for “BSA”, “200” for “500”, “μl (antibacterial assay) or 20 μl (antifungal assay)” for “μl”
as §8

[9] = test system: Pseudomonas syringae pv. syringae; assay: as above; type: cell-based; details: Table 2; for LC (lethal concentration): 100% inhibition after at least 4 days of incubation; for MIC: >90% inhibition, 1-2 days at 25° C.
Experimental: as §1, with “flat-bottom 96-well plates” for “ELISA-plates”, “Frickenhausen).” for “Frickenhausen or Nunc, Wiesbaden).”, “BSA (500 μg/ml), filter sterilized” for “BSA”, “200” for “500”, “μl (antibacterial assay) or 20 μl (antifungal assay)” for “μl”
as §8

[10] = test system: Clavibacter michiganensis; assay: as above; type: cell-based; details: Table 2; for LC (lethal concentration): 100% inhibition after at least 4 days of incubation; for MIC: >90% inhibition, 1-2 days at 25° C.
Experimental: as §1, with “flat-bottom 96-well plates” for “ELISA-plates”, “Frickenhausen).” for “Frickenhausen or Nunc, Wiesbaden).”, “BSA (500 μg/ml), filter sterilized” for “BSA”, “200” for “500”, “μl (antibacterial assay) or 20 μl (antifungal assay)” for “μl”
as §8

Xanthomonas vesicatoria [11] = assay: as above; type: cell-based; details: Table 2; for LC (lethal concentration): 100% inhibition after at least 4 days of incubation; for MIC: >90% inhibition, 1-2 days at 25° C.
Experimental: as §1, with “flat-bottom 96-well plates” for “ELISA-plates”, “Frickenhausen).” for “Frickenhausen or Nunc, Wiesbaden).”, “BSA (500 μg/ml), filter sterilized” for “BSA”, “200” for “500”, “μl (antibacterial assay) or 20 μl (antifungal assay)” for “μl”
as §8

Pseudomonas corrugata [12] = details: Table 2; for LC (lethal concentration): 100% inhibition after at least 4 days of incubation; for MIC: >90% inhibition, 1-2 days at 25° C.
Experimental: as §1, with “flat-bottom 96-well plates” for “ELISA-plates”, “Frickenhausen).” for “Frickenhausen or Nunc, Wiesbaden).”, “BSA (500 μg/ml), filter sterilized” for “BSA”, “200” for “500”, “μl (antibacterial assay) or 20 μl (antifungal assay)” for “μl”
as §8

[13] = test system: human immundeficiency virus (HIV); type: cell-based; details: HeLa cells pre-treated 30 min at 37° C.; red fluorescence after 72 h; read-out: IC50, concentration where the infection is decreased by 50% (compared to non-treated controls)
Experimental: Cells were pretreated with 6.3 μg/ml SP13-3 and SP13-14 or buffer for 30 min at 37° C. before addition of virus particles. […] Shown is an overlay of pictures taken under transmitted light and fluorescence after 72 hours incubation. The viability of the HeLa cells was determined by measuring the activity of the mitochondrial dehydrogenase.
To measure the activity of the designed oligopeptides against human immundeficiency virus (HIV) a fluorescence-based reporter system was used. HeLa cells (LC5-RIC) harbour a reporter gene, which regulates in dependency of HIV Rev and Tat proteins the synthesis of a red fluorescing protein. In this way the infection of the HeLa cells (LC5-RIC) is indicated and the infection rate can be quantified using a fluorescence microplate reader.
as §7

Xylella fastidiosa = details: reported by Kuzina et al (2006); cited from earlier work
[14] = test system: Clavibacter michiganensis sub. michiganensis; details: complete inhibition of bacterial growth; overnight 25° C.; Table 1
[15] = complete inhibition of bacterial growth, overnight 25° C., Table 1

| Substance | Minimal inhibition concentration (MIC) (Xanthomonas vesicatoria [1]; [15]) [µg/mL] | Minimal inhibition concentration (MIC) [2, 15] [µg/mL] | Minimal inhibition concentration (MIC) (Alternaria alternata) [µg/mL] | Minimal inhibition concentration (MIC) (Botrytis cinerea) [µg/mL] | Minimal inhibition concentration (MIC) (Cladosporium herbarum) [µg/mL] | Minimal inhibition concentration (MIC) [3, 15] [µg/mL] | Minimal inhibition concentration (MIC) [4, 15] [µg/mL] | Minimal inhibition concentration (MIC) (Pseudomonas corrugata [5]; [15]) [µg/mL] | LC (lethal concentration) [7] | MIC [7] | LC (lethal concentration) [8] | MIC [8] | LC (lethal concentration) [9] | MIC [9] | LC (lethal concentration) [10] [µg/mL] | MIC [10] [µg/mL] | LC (lethal concentration) (Xanthomonas vesicatoria [11]) [µg/mL] | MIC (Xanthomonas vesicatoria [11]) [µg/mL] | LC (lethal concentration) (Pseudomonas corrugata [12]) [µg/mL] | MIC (Pseudomonas corrugata [12]) [µg/mL] | other results |
| --- | --- | --- | --- | --- | --- | --- | --- | --- | --- | --- | --- | --- | --- | --- | --- | --- | --- | --- | --- | --- | --- |
| KRRLAAFRAFRGALKSVLKK-NH2 [SP16] | 5 | >40 | >100 | >100 | 20 | 5 | 5 | 2.5 |  |  |  |  |  |  |  |  |  |  |  |  | Activity against human pathogens (MIC) (Escherichia coli (DH5α)): 10 µg/mL; Activity against human pathogens (MIC) (Staphylococcus aureus): >50 µg/mL; Activity against human pathogens (MIC) (Klebsiella pneumoniae): >50 µg/mL; Activity against human pathogens (MIC) (Yersinia enterocolitica): >50 µg/mL; Activity against human pathogens (MIC) (Enterobacter cloacae): >50 µg/mL; Activity against human pathogens (MIC) [6]: 20 µg/mL; Activity against human pathogens (MIC) (Klebsiiella oxytoca): >50 µg/mL; Activity against human pathogens (MIC) (Pseudomonas aeruginosa): >50 µg/mL |
| KRRKLAFRLFRLFLKLVLKK-NH2 [SP13-14] |  |  |  |  |  |  |  |  | >10/>10 μg/ml | >10/>10 μg/ml | 5.0 µg/mL | 2.5 µg/mL | 10 µg/mL | 5.0 µg/mL | 2 to 5 | 0.5 | 2.5 | 0.25 | > 10 | 2.5 | negative/toxic effect on test cells (HeLa cells) (HeLa cells (LC5-RIC)): No negative/toxic effect; IC50 [13]: 1200 nM |
| Magainin-2 |  |  |  |  |  |  |  |  |  |  |  |  |  |  |  |  |  |  |  |  | activity against Xylella fastidiosa (Xylella fastidiosa): active |
| KRRLIARILRLAARALVKKR (also: D-amino acids at unstated positions) [SP13-D] | 2 | >40 | 20 | >40 | 5 | 1 | 2.5 | 40 |  |  |  |  |  |  |  |  |  |  |  |  | Minimal inhibition concentration (MIC) [14]: 10 µg/mL |
| KRRLIARILRLAARALVKKR-NH2 [SP13] |  |  | >100 | >100 | 20 |  |  |  | 10/>10 μg/ml | 10/>10 μg/ml | 5.0/5.0 μg/ml | 5.0/5.0 μg/ml | 0.5/0.5 μg/ml | 0.5/0.5 μg/ml | 1.0 | 0.25 | 0.5 | 0.1 | 1.0 | 0.25 | Minimal inhibition concentration (MIC) (Xanthomonas vesicatoria [1]): 2.5 µg/mL; Minimal inhibition concentration (MIC) [14]: 2.5 µg/mL; Minimal inhibition concentration (MIC) [2]: >40 µg/mL; Minimal inhibition concentration (MIC) [3]: 20 µg/mL; Minimal inhibition concentration (MIC) [4]: 10 µg/mL; Minimal inhibition concentration (MIC) (Pseudomonas corrugata [5]): 2.5 µg/mL |
